Results on one molecule are retold here after ChEMBL document CHEMBL2073936, “A novel human hepatic organic anion transporting polypeptide (OATP2). Identification of a liver-specific human organic anion transporting polypeptide and identification of rat and human hydroxymethylglutaryl-CoA reductase inhibitor transporters” (J Biol Chem, 1999).

Format in all cases: functional, cell-based
Series [1] deals with T1, Solute carrier organic anion transporter family member 1A2 (Homo sapiens, UniProt P46721).
T1 sequence (P46721 whole entry): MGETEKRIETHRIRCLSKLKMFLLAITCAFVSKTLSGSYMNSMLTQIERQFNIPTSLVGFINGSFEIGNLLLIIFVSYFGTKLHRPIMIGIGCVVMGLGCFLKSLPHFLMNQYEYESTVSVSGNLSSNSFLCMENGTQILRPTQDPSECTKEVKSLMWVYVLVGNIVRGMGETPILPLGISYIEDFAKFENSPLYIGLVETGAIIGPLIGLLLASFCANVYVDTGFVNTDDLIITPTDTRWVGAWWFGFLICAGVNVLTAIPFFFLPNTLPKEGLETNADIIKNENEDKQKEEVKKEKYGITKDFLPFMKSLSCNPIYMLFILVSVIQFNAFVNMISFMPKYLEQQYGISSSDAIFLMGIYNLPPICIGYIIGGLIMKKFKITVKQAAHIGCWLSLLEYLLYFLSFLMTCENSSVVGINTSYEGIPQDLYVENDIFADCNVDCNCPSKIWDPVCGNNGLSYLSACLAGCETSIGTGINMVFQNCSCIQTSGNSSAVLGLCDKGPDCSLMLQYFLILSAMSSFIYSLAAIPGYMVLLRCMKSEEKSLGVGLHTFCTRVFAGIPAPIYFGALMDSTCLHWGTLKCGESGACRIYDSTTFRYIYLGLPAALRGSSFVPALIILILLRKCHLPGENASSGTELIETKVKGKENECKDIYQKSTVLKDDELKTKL
Nature of the series: TP_TRANSPORTER: uptake in OATP-A-expressing 293c18 cell. As to conditions: hek293-ebna.

Series [2] addresses T2, Solute carrier organic anion transporter family member 1A4 (Rattus norvegicus, UniProt O35913).
T2 sequence (O35913 whole entry): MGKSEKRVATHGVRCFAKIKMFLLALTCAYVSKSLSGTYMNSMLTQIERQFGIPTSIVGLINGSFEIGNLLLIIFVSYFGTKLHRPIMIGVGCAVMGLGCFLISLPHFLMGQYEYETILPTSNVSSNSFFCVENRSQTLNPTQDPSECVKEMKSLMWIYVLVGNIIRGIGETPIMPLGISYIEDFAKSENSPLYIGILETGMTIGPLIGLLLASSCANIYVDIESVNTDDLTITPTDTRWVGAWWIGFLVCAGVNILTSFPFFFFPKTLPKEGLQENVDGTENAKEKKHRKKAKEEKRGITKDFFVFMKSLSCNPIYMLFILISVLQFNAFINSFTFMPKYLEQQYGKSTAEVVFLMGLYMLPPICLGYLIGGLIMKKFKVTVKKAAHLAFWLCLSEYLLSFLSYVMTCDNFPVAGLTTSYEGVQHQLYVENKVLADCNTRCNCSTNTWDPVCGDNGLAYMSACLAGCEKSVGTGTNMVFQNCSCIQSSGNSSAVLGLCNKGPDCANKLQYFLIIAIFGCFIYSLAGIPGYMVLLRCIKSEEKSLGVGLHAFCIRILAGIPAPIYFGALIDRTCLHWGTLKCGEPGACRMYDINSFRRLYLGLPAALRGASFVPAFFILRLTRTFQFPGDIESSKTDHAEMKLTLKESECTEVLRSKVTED
The experiment in a line: TP_TRANSPORTER: uptake in Oatp2-expressing 293c18 cells. Particulars: human, hek293-ebna.

The target in series [3] is T3, Solute carrier organic anion transporter family member 1A1 (Rattus norvegicus, UniProt P46720).
T3 sequence (P46720 whole entry): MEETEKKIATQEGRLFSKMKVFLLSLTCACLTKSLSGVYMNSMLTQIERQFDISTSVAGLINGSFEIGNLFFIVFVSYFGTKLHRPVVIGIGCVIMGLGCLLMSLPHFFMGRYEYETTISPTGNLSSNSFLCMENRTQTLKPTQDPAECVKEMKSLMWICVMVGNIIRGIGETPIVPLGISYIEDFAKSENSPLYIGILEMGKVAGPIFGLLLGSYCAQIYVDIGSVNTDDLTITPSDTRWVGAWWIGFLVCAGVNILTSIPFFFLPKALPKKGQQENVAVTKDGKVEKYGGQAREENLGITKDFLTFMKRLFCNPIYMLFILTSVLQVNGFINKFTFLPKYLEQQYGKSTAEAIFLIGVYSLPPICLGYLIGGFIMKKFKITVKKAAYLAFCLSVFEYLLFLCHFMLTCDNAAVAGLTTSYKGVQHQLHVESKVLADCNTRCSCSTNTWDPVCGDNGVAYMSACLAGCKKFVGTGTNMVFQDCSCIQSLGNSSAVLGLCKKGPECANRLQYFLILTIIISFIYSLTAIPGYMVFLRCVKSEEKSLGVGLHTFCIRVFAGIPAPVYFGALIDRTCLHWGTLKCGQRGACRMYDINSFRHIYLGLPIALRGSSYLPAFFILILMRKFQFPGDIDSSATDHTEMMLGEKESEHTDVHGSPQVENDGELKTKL
The experiment in a line: TP_TRANSPORTER: inhibition of Taurocholate uptake (Taurocholate: 0.5 uM, Pravastatin: 50 uM) in Oatp1-expressing 293c18 cells. As to conditions: human, hek293-ebna.

As to `CC[C@H](C)C(=O)O[C@H]1C[C@H](O)C=C2C=C[C@H](C)[C@H](CC[C@@H](O)C[C@@H](O)CC(=O)O)[C@H]21` [PRAVASTATIN], the Activity entry in series [1] was “is not a substrate [-]”; in series [2] it was “is not a substrate [-]”; in series [3], “inhibitor [+]”.
